Laboratory results reported in PMC5496853, “Dual activation of neuronal G protein-gated inwardly rectifying potassium (GIRK) channels by cholesterol and alcohol” (Scientific Reports, 2017).

How the values were obtained:
GIRK2 [1] = target: T1, GIRK2 (Mus musculus, UniProt P48542); test: fluorescence (ACMA) K+ flux assay, purified channel reconstituted in liposomes; assay type: biochemical
T1 construct: gene Kcnj6; amino acids 52-380
T1 sequence (P48542 52-380): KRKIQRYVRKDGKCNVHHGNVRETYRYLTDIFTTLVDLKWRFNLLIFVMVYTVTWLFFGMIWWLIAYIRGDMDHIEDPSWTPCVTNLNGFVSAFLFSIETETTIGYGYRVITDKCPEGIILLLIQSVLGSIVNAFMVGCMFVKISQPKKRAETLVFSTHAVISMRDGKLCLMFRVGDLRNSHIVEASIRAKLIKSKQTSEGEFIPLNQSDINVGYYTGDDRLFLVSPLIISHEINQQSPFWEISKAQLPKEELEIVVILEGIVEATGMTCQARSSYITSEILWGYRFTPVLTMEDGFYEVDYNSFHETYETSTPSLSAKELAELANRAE

GIRK2 [2] = target: T1, GIRK2; test: fluorescence (ACMA) K+ flux assay, purified channel reconstituted in liposomes with brain PIP2; assay type: biochemical

Row | EC50 (GIRK2 [1]) [µM] | Compound | fluorescence (ACMA) K+ flux assay, purified channel reconstituted in liposomes w (GIRK2 [2]) [mM]
1 | 25.1 ± 3.3 | CCCCCCCC(=O)OC[C@H](COP(=O)(O)O[C@@H]1[C@H](O)[C@H](O)[C@@H](OP(=O)(O)O)[C@H](OP(=O)(O)O)[C@H]1O)OC(=O)CCCCCCC [diC8-PIP2] | 
2 |  | CCO [ethanol] | > 20
